The results in this text go back to patent US6503727B1, “Process for the preparation of an antibiotic” (Gist-Brocades, B.V., priority 1995, dated 2003).

Where two headings read alike, the source gives them in different places.

Data set [1] is described as follows: Effect of PGA and CEX on the solubility of 7-ADCA (dissolved concentrations in synthetic mixtures). Particulars: final pH 4.5, 2 hours, 20° C.
Method: Effect of PGA and PEX on the Solubility of 7-ADCA
The following synthetic mixtures were prepared, with a final pH of 4.5;
3% (m/m) 7-ADCA and 3.0% (m/m) CEX.H2O in water.
(§1) After 2 hours' incubation in a shaker incubator (20° C.) samples were taken and the dissolved concentration of each of these components was determined.
A short description of data set [2]: Effect of PGA and AMPI on the solubility of 6-APA (dissolved concentrations in synthetic mixtures). Particulars: final pH 4.5, 2 hours, 20° C.
Method: (§2) The following synthetic mixtures were prepared, with a final pH of 4.5:
as §1
For data set [3] the following is noted: final pH 4.5, 2 hours, 20° C.
Method: as §2, §1
The mark [4] stands for this setting: Example I Mixture 3: 3% (m/m) 7-ADCA, 0.4% (m/m) PG and 1.5% (m/m) PGA in water.
[5] abbreviates: Example I Mixture 4: 3% (m/m) 7-ADCA, 0.4% (m/m) PC, 1.5% (m/m) PGA and 3.0% (m/m) CEX.H2O in water.
Where [6] appears, read: Example II Mixture 2: 3% (m/m) 6-APA and 0.4% (m/m) PG in water.
Where [7] appears, read: Example II Mixture 3: 3% (m/m) 6-APA, 0.4% (m/m) PG and 1.5% (m/m) PGA in water.
The mark [8] stands for this setting: Example II Mixture 4: 3% (m/m) 6-APA, 0.4% (m/m) PG, 1.5% (m/m) PGA and 3.0% (m/m) AMPI in water.

In the case of `N[C@@H](C(=O)O)c1ccccc1` [PG, D-phenyl glycine], the Dissolved Concentrations in data set [1] (Example I Mixture 2: 3% (m/m) 7-ADCA and 0.4% (m/m) PG in water) was 0.40 % (m/m); in data set [1] (setting [4]), 0.40 % (m/m); in data set [1] (setting [5]), 0.40 % (m/m). Besides, the dissolved concentration in data set [2] (setting [6]), in data set [2] (setting [7]) and in data set [2] (setting [8]) was 0.4 in each case.
`CC1(C)S[C@@H]2[C@H](N)C(=O)N2[C@H]1C(=O)O` [6-APA, 6-aminopenicillanic acid]: the “Dissolved Concentrations” value is on record as 0.35 % (m/m) in data set [3] (Example III Mixture 1: 3% (m/m) 6-APA in water); 0.35 % (m/m) in data set [3] (Example III Mixture 2: 3% (m/m) 6-APA and 0.5% (m/m) HPG in water); 0.40 % (m/m) in data set [3] (Example III Mixture 3: 3% (m/m) 6-APA, 0.5% (m/m) HPG and 1.5% (m/m) HPGA in water); 0.50 % (m/m) in data set [3] (Example III Mixture 4: 3% (m/m) 6-APA, 0.5% (m/m) HPG and 2.0% HPG-Me in water); 1.40 % (m/m) in data set [3] (Example III Mixture 5: 3% (m/m) 6-APA, 0.5% (m/m) HPG, 1.5% (m/m) HPGA and 3.0% AMOX in water); 2.15 % (m/m) in data set [3] (Example III Mixture 6: 3.0% (m/m) 6-APA, 0.5% (m/m) HPG, 2.0% (m/m) HPG-Me and 3.0% (m/m) AMOX in water). For the same molecule, the dissolved concentration in data set [2] (Example II Mixture 1: 3% (m/m) 6-APA in water) is 0.35; in data set [2] (setting [6]), 0.40; in data set [2] (setting [7]) it was 0.40; in data set [2] (setting [8]), 0.90.
In the case of `NC(=O)[C@H](N)c1ccccc1` [PGA, D-phenyl glycine amide], the Dissolved Concentrations in data set [1] (setting [4]) and in data set [1] (setting [5]) was 1.5 % (m/m) each time. The dissolved concentration in data set [2] (setting [7]) and in data set [2] (setting [8]) was 1.5 in each case.
